# Reference: patent US20060166941A1, “Treatment and/or prevention of non-viral epithelial damage” (Epistem Limited, priority 2003, published 2006)
# Where “and” joins values, the source holds several entries; their conditions need not be identical. Identical values can stand only once. Counter-ions that a name gives are not always drawn.
# Tests used:
# intestinal crypt cells = assay: Epithelial cell kinetic evaluation following oral administration (BrdUrd labelling, tolerability); assay type: in vivo; conditions: 500 mg/kg oral gavage once a day for 4 days
# Experimental: Epithelial Cell Kinetic Evaluation Following Oral Administration of Foscarnet Phosphonoformic Acid Trisodium Salt Hexahydrate).
# Intestinal epithelial cell stimulation following an oral application of foscarnet (phosphonoformic acid trisodium salt hexahydrate) was illustrated by the following experiment.
# Two experimental groups, each of three mice, were established as set out below:
# Group 1: Received oral gavage, containing 500 mg foscarnet/kilogram bodyweight, in sterile water, once a day for 4 days. On the fifth day the animals received a pulse of 10 mg Bromodeoxyuridine (BrdUrd) and 40 minutes laster were killed and small intestine and kidneys harvested for analysis.
# Group 2: Received oral gavage of sterile water, once a day for 4 days On the fifth day the animals received a pulse of 10 mg Bromodeoxyuridine and 40 minutes laster were killed and small intestine and kidneys harvested for analysis.
# Slides were immunohistochemically labelled for BrdUrd and counterstained with thionin to assess intestinal epithelial cell kinetic changes with oral administration of foscarnet. To assess epithelial cell kinetic changes, 50 small intestinal crypts per animal were quantified on a cell positional basis for the number of positively labelled S-phase cells at each cell position in the crypt. Quantification starts at the bottom of the crypt (cell position 1) and continues up one side of the crypt assessing each cell in turn to the crypt villus junction.
# [1] = test system: clonogenic stem cells of the digestive epithelium; assay: In vivo protection of intestinal epithelium clonogenic stem cells, chemotherapy drug (5-Flurouracil) damage; design: species or system mice
# Experimental: In Vivo Protection of Intestinal Epithelium Clonogenic Stem Cells—Chemotherapy Drug Damage.
# The ability of foscarnet (phosphonoformic acid trisodium salt hexahydrate) to prevent cytotoxic damage to clonogenic stem cells of the digestive epithelium was illustrated by the following experiment.
# The model of cytotoxic insult used was treatment with 2 doses of 5-Flurouracil 6 hours apart at either 400 mg or 500 mg of 5-Fluorouracil/kilogram bodyweight. Such cytotoxic treatment provides a model of chemotherapy administered to patients undergoing treatment for cancer.
# Five experimental groups, each of five mice, were established as set out below:
# Group 1: Received intra-peritoneal injection, containing 50 mg foscarnet/kilogram bodyweight, in sterile water, one hour prior to the first cytotoxic treatment (400 mg 5-Flurouracil/kilogram bodyweight). Received one further identical injection on each of the three days following cytotoxic treatment. […]
# Group 3: Vehicle control. Received intra-peritoneal injection, of sterile water, one hour prior to both cytotoxic treatments (400 mg 5-Flurouracil/kilogram bodyweight). Received one further identical injection on each of the three days following cytotoxic treatment. […]
# (§1) On the fourth day after treatment the animals of each group were killed, and intestinal tissue harvested for histological analysis. Tissue sections were stained with haemotoxylin and eosin, and were analysed for the presence of regenerating intestinal crypts. Regenerating intestinal crypts are derived from one or more surviving clonogenic stem cells, whereas sterilised crypts (containing no surviving stem cells) disappear within two days of irradiation. The number of regenerating crypts per intestinal circumference was counted, and the mean crypt width measured. Scores for each animal were then corrected to account for the probability of preferentially scoring larger crypts according to the following equation: [formula]
# (§2) For each treatment a Protection Factor was calculated using the following equation: corrected crypts/circumference treated corrected crypts/circumference untreated (vehicle)
# [2] = test system: clonogenic stem cells of the digestive epithelium; assay: In vivo protection of intestinal epithelium clonogenic stem cells, radiation damage, independent experiment 1 (regenerating crypts); design: species or system mice; conditions: for corrected crypts/circumference / no. crypts/circumference: day 4; for Protection Factor: 13Gy, corrected crypts treated / vehicle
# Excerpt: In Vivo Protection of Intestinal Epithelium Clonogenic Stem Cells—Radiation Damage Independent Experiment 1.
# The ability of foscarnet (phosphonoformic acid trisodium salt hexahydrate) to prevent radiological damage to clonogenic stem cells of the digestive epithelium was illustrated by the following experiment.
# The model of radiological insult used was treatment with 13 Gy X-ray whole body radiation at a dose rate of 0.7 Gy/minute. Such radiation treatment provides a model of radiotherapy administered to patients undergoing treatment for cancer.
# Four experimental groups, each of six mice, were established as set out below:
# Group 1: Received intra-peritoneal injection, containing 50 mg foscarnet/kilogram bodyweight, in sterile water, one hour prior to radiation treatment. Received one further identical injection on each of the three days following radiation treatment.
# Group 2: Received intra-peritoneal injection, containing 100 mg foscarnet/kilogram bodyweight, in sterile water, one hour prior to radiation treatment. Received one further identical injection on each of the three days following radiation treatment.
# Group 3: Vehicle control. Received intra-peritoneal injection, of sterile water, one hour prior to radiation treatment. Received one further identical injection on each of the three days following radiation treatment.
# Group 4: Untreated controls. Received neither injections nor exposure to radiation.
# as §1, §2
# [3] = 50 mg foscarnet 1 hr prior to 1st dose of 5-Flurouracil (400 mg/kg x 2 6 hrs apart) and D1, D2, D3, group Average
# [4] = 50 mg foscarnet 1 hr prior to 1st dose of 5-Flurouracil (400 mg/kg x 2 6 hrs apart) and D1, D2, D3, individual mice
# [5] = 50 mg foscarnet 1 hr prior to both doses of 5-Flurouracil (400 mg/kg x 2 6 hrs apart) and D1, D2, D3, group Average
# [6] = 50 mg foscarnet 1 hr prior to both doses of 5-Flurouracil (400 mg/kg x 2 6 hrs apart) and D1, D2, D3, individual mice
# [7] = 50 mg foscarnet 1 hr prior to both doses of 5-Flurouracil (500 mg/kg x 2 6 hrs apart) and D1, D2, D3, group Average
# [8] = 50 mg foscarnet 1 hr prior to both doses of 5-Flurouracil (500 mg/kg x 2 6 hrs apart) and D1, D2, D3, individual mice
# [9] = group 1: 50 mg/kg foscarnet 1 hr prior to first 5-Flurouracil dose (400 mg/kg x 2) and 3 days after
# [10] = 13Gy plus 50 mg foscarnet -1 hr, 1, 2, 3 day, group Average
# [11] = 13Gy plus 50 mg foscarnet -1 hr, 1, 2, 3 day, individual mice
# [12] = 13Gy plus 100 mg foscarnet -1 hr, 1, 2, 3 day, group Average
# [13] = 13Gy plus 100 mg foscarnet -1 hr, 1, 2, 3 day, individual mice
smiles,measurement,setting,value
"O=C(O)P(=O)(O)O [foscarnet, phosphonoformic acid trisodium salt hexahydrate]",deaths or signs of illness,intestinal crypt cells,no deaths or signs of illness
same,tolerability of relatively high oral doses,intestinal crypt cells,tolerated without notable toxicity
same,kidney damage judged by histological sectioning,intestinal crypt cells; end of treatment period,neither of the groups showed overt signs of kidney damage
same,BrdUrd labelling index in intestinal crypt cells (FIG. 5),intestinal crypt cells; versus vehicle control,stimulating effect on intestinal crypt cells
same,Protection Factor,"[1]; 50 mg foscarnet 1 hr prior to 1st dose of 5-Flurouracil (400 mg/kg x 2 6 hrs apart) and D1, D2 & D3",1.87
same,corrected crypts/circumference,[1]; [3],20.0
same,no. crypts/circumference,[1]; [3],21.5
same,corrected crypts/circumference,[1]; [4],11.0 and 23.2 and 17.2 and 16.5 and 32.1
same,no. crypts/circumference,[1]; [4],12.4 and 24.1 and 17.9 (2×) and 35.2
same,Protection Factor,"[1]; 50 mg foscarnet 1 hr prior to both doses of 5-Flurouracil (400 mg/kg x 2 6 hrs apart) and D1, D2 & D3",1.59
same,corrected crypts/circumference,[1]; [5],17.0
same,no. crypts/circumference,[1]; [5],18.1
same,corrected crypts/circumference,[1]; [6],14.3 and 16.3 and 20.6 and 11.4 and 22.5
same,no. crypts/circumference,[1]; [6],15.9 and 16.8 and 22.8 and 11.4 and 23.4
same,Protection Factor,"[1]; 50 mg foscarnet 1 hr prior to both doses of 5-Flurouracil (500 mg/kg x 2 6 hrs apart) and D1, D2 & D3",1.46
same,corrected crypts/circumference,[1]; [7],10.2
same,no. crypts/circumference,[1]; [7],10.5
same,corrected crypts/circumference,[1]; [8],8.5 and 13.0 and 16.3 and 5.6 and 7.6
same,no. crypts/circumference,[1]; [8],8.5 and 13.0 and 17.9 and 6.0 and 7.3
same,numbers of intestinal crypts after exposure to 5-Flurouracil,"[1]; Groups 1, 2 and 4 (50 mg foscarnet/kg regimens)",increased numbers of intestinal crypts
same,more crypts compared to mice treated with vehicle alone,[1]; [9],~50%
same,more small intestinal clonogenic stem cells survived,[1]; [9],at least 50%
same,corrected crypts/circumference,[2]; [10],3.8
same,no. crypts/circumference,[2]; [10],6.8
same,corrected crypts/circumference,[2]; [11],2.6 and 6.1 and 3.6 and 4.3 and 2.5
same,no. crypts/circumference,[2]; [11],4.8 and 10.7 and 6.6 and 7.2 and 4.5
same,corrected crypts/circumference,[2]; [12],3.2
same,no. crypts/circumference,[2]; [12],5.6
same,corrected crypts/circumference,[2]; [13],3.0 and 3.6 and 2.5 and 2.1 and 4.8
same,no. crypts/circumference,[2]; [13],5.5 and 6.4 and 4.3 and 3.8 and 8.0
same,Protection Factor,"[2]; 50 mg foscarnet -1 hr, 1, 2, 3 day",1.52
same,more crypts compared to mice treated with vehicle alone,"[2]; 13 Gy, 50 mg/kg foscarnet",~50%
same,more small intestinal clonogenic stem cells survived,"[2]; 13 Gy, 50 mg/kg foscarnet",at least 50%
same,Protection Factor,"[2]; 100 mg foscarnet -1 hr, 1, 2, 3 day",1.28
same,numbers of intestinal crypts after exposure to radiation,"[2]; Groups 1 and 2 (50 mg foscarnet and 100 mg foscarnet), 13 Gy",increased numbers of intestinal crypts
